From patent publication US4405743A, “Pyrazolylpyrimidine derivatives” (Hokko Chemical Industry Co., Ltd., priority 1981, dated 1983)
In brackets after ≈: the same amount, converted by molar mass.

Each molecule was assayed on rice plant (assay: not given). Conditions: blast prevention test, 200 ppm.

SMILES | Degree of chemical injury
Cc1cc(C)n(-c2nccc(Sc3ccccc3)n2)n1 [Compound 4] | 0
Cc1cc(C)n(-c2ncc(C)c(Sc3ccccc3)n2)n1 [Compound 35] | 0
CCOc1nc(-n2nc(C)cc2C)ncc1C [Compound 32] | 0

The molecules below were run on Cochliobolus miyabeanus (assay: Antimicrobial activity (mycelium growth inhibition, PDA medium)). Conditions: Bipolaris oryzae, read-out: ED50 value.
Assay type: cell-based

SMILES | IC50
Cc1cc(C)n(-c2nccc(Sc3ccccc3)n2)n1 [Compound 4] | 4.6 µg/mL (≈ 16.3 µM)
Cc1cc(C)n(-c2ncc(C)c(Sc3ccccc3)n2)n1 [Compound 35] | 4.3 µg/mL (≈ 14.5 µM)
CCOc1nc(-n2nc(C)cc2C)ncc1C [Compound 32] | 3.8 µg/mL (≈ 16.4 µM)

Each molecule was assayed on Pyricularia oryzae (assay: not given). Conditions: rice blast, curative treatment; sprayed liquid 200 ppm; 5 days after spraying.
Assay type: in vivo, Pyricularia oryzae on rice plant (variety: Asahi)

SMILES | Control Value
Cc1cc(C)n(-c2nccc(Sc3ccccc3)n2)n1 [Compound 4] | 100%
Cc1cc(C)n(-c2ncc(C)c(Sc3ccccc3)n2)n1 [Compound 35] | 95%
CCOc1nc(-n2nc(C)cc2C)ncc1C [Compound 32] | 93%

What follows are molecules tested on Pyricularia oryzae (assay: microbe, parasite or virus in culture). Conditions: read-out: ED50 value.
Assay type: cell-based

SMILES | IC50
Cc1cc(C)n(-c2nccc(Sc3ccccc3)n2)n1 [Compound 4] | 0.1 µg/mL (≈ 0.354 µM)
Cc1cc(C)n(-c2ncc(C)c(Sc3ccccc3)n2)n1 [Compound 35] | 0.2 µg/mL (≈ 0.675 µM)
CCOc1nc(-n2nc(C)cc2C)ncc1C [Compound 32] | 0.8 µg/mL (≈ 3.44 µM)

What follows are molecules tested on cucumber plant (assay: not given). Conditions: in vivo.

SMILES | Degree of chemical injury
Cc1cc(C)n(-c2nccc(Sc3ccccc3)n2)n1 [Compound 4] | 0
Cc1cc(C)n(-c2ncc(C)c(Sc3ccccc3)n2)n1 [Compound 35] | 0
CCOc1nc(-n2nc(C)cc2C)ncc1C [Compound 32] | 0

These molecules were tested on rice plant (assay: not given). Conditions: blast curative test, 200 ppm.

SMILES | Degree of chemical injury
Cc1cc(C)n(-c2nccc(Sc3ccccc3)n2)n1 [Compound 4] | 0
Cc1cc(C)n(-c2ncc(C)c(Sc3ccccc3)n2)n1 [Compound 35] | 0
CCOc1nc(-n2nc(C)cc2C)ncc1C [Compound 32] | 0

The molecules below were run on Diaporthe citri (assay: Antimicrobial activity (mycelium growth inhibition, PDA medium)). Conditions: 24° C., read-out: ED50 value.
Assay type: cell-based
Experimental: (§1) Experimental Example 5 (Test for Antimicrobial Activity Against Various Plant Phathogenic Fungi)
(§2) 1 ml of an acetone solution of each of test compounds and 20 ml of the PDA medium (50° C.) to prepare media containing the chemical in different concentrations, followed by charging into a petri dish with a diameter of 9 cm where it was solidified flat. On the central portion of the chemical-containing medium was inoculated a fungus-containing medium a piece of ager black-containing mycelia which was obtained by punching by means of a cork borer the tip portion of mycelia of each test fungus which had been cultured in advance in the PDA medium, followed by cultivating at 24° C. Two to six days after the cultivation, the diameter of the mycelia was measured and mycelium growth inhibiting rate was calculated from a comparison with that of a non-treated plot. The mycelium growth inhibiting rate was plotted on a logarithmic probability paper to determine an ED50 value.

SMILES | IC50
Cc1cc(C)n(-c2nccc(Sc3ccccc3)n2)n1 [Compound 4] | 2.7 µg/mL (≈ 9.56 µM)
Cc1cc(C)n(-c2ncc(C)c(Sc3ccccc3)n2)n1 [Compound 35] | 4.6 µg/mL (≈ 15.5 µM)
CCOc1nc(-n2nc(C)cc2C)ncc1C [Compound 32] | 4 µg/mL (≈ 17.2 µM)

The molecules below were run on Endothia parasitica in the same assay as above. Conditions: Cryphonectria parasitica, 24° C., read-out: ED50 value.
Assay type: cell-based
Experimental: as §1, §2

SMILES | IC50
Cc1cc(C)n(-c2nccc(Sc3ccccc3)n2)n1 [Compound 4] | 1.9 µg/mL (≈ 6.73 µM)
Cc1cc(C)n(-c2ncc(C)c(Sc3ccccc3)n2)n1 [Compound 35] | 6.8 µg/mL (≈ 22.9 µM)
CCOc1nc(-n2nc(C)cc2C)ncc1C [Compound 32] | 7.5 µg/mL (≈ 32.3 µM)

These molecules were tested on Sclerotinia fructigena in the same assay as above. Conditions: 24° C., read-out: ED50 value.
Assay type: cell-based
Experimental: as §1, §2

SMILES | IC50
Cc1cc(C)n(-c2nccc(Sc3ccccc3)n2)n1 [Compound 4] | 0.4 µg/mL (≈ 1.42 µM)
Cc1cc(C)n(-c2ncc(C)c(Sc3ccccc3)n2)n1 [Compound 35] | 0.7 µg/mL (≈ 2.36 µM)
CCOc1nc(-n2nc(C)cc2C)ncc1C [Compound 32] | 0.9 µg/mL (≈ 3.87 µM)

Each molecule was assayed on Alternaria padwikii in the same assay as above. Conditions: 24° C., read-out: ED50 value.
Assay type: cell-based
Experimental: as §1, §2

SMILES | IC50
Cc1cc(C)n(-c2nccc(Sc3ccccc3)n2)n1 [Compound 4] | 1.2 µg/mL (≈ 4.25 µM)
Cc1cc(C)n(-c2ncc(C)c(Sc3ccccc3)n2)n1 [Compound 35] | 1 µg/mL (≈ 3.37 µM)
CCOc1nc(-n2nc(C)cc2C)ncc1C [Compound 32] | 1.2 µg/mL (≈ 5.17 µM)

Each molecule was assayed on Phizoctonia solani in the same assay as above. Conditions: 24° C., read-out: ED50 value.
Assay type: cell-based
Experimental: as §1, §2

SMILES | IC50
Cc1cc(C)n(-c2nccc(Sc3ccccc3)n2)n1 [Compound 4] | 1.1 µg/mL (≈ 3.9 µM)
Cc1cc(C)n(-c2ncc(C)c(Sc3ccccc3)n2)n1 [Compound 35] | 2.8 µg/mL (≈ 9.45 µM)
CCOc1nc(-n2nc(C)cc2C)ncc1C [Compound 32] | 2.4 µg/mL (≈ 10.3 µM)

The molecules below were run on Glomerella cingulata in the same assay as above. Conditions: Colletotrichum gloeosporioides, 24° C., read-out: ED50 value.
Assay type: cell-based
Experimental: as §1, §2

SMILES | IC50
Cc1cc(C)n(-c2nccc(Sc3ccccc3)n2)n1 [Compound 4] | 4.1 µg/mL (≈ 14.5 µM)
Cc1cc(C)n(-c2ncc(C)c(Sc3ccccc3)n2)n1 [Compound 35] | 9.6 µg/mL (≈ 32.4 µM)
CCOc1nc(-n2nc(C)cc2C)ncc1C [Compound 32] | 7 µg/mL (≈ 30.1 µM)

Each molecule was assayed on Sclerotinia sclerotiorum in the same assay as above. Conditions: 24° C., read-out: ED50 value.
Assay type: cell-based
Experimental: as §1, §2

SMILES | IC50
Cc1cc(C)n(-c2nccc(Sc3ccccc3)n2)n1 [Compound 4] | 3.2 µg/mL (≈ 11.3 µM)
Cc1cc(C)n(-c2ncc(C)c(Sc3ccccc3)n2)n1 [Compound 35] | 6.1 µg/mL (≈ 20.6 µM)
CCOc1nc(-n2nc(C)cc2C)ncc1C [Compound 32] | 5.5 µg/mL (≈ 23.7 µM)

These molecules were tested on Pellicularia sasakii in the same assay as above. Conditions: 24° C., read-out: ED50 value.
Assay type: cell-based
Experimental: as §1, §2

SMILES | IC50
Cc1cc(C)n(-c2nccc(Sc3ccccc3)n2)n1 [Compound 4] | 1.2 µg/mL (≈ 4.25 µM)
Cc1cc(C)n(-c2ncc(C)c(Sc3ccccc3)n2)n1 [Compound 35] | 1.3 µg/mL (≈ 4.39 µM)
CCOc1nc(-n2nc(C)cc2C)ncc1C [Compound 32] | 1.5 µg/mL (≈ 6.46 µM)

What follows are molecules tested on Curvularia sp. in the same assay as above. Conditions: 24° C., read-out: ED50 value.
Assay type: cell-based
Experimental: as §1, §2

SMILES | IC50
Cc1cc(C)n(-c2nccc(Sc3ccccc3)n2)n1 [Compound 4] | 0.7 µg/mL (≈ 2.48 µM)
Cc1cc(C)n(-c2ncc(C)c(Sc3ccccc3)n2)n1 [Compound 35] | 1.8 µg/mL (≈ 6.07 µM)
CCOc1nc(-n2nc(C)cc2C)ncc1C [Compound 32] | 1.6 µg/mL (≈ 6.89 µM)

These molecules were tested on Helminthosporium gramineum in the same assay as above. Conditions: 24° C., read-out: ED50 value.
Assay type: cell-based
Experimental: as §1, §2

SMILES | IC50
Cc1cc(C)n(-c2nccc(Sc3ccccc3)n2)n1 [Compound 4] | 2.4 µg/mL (≈ 8.5 µM)
Cc1cc(C)n(-c2ncc(C)c(Sc3ccccc3)n2)n1 [Compound 35] | 6.3 µg/mL (≈ 21.3 µM)
CCOc1nc(-n2nc(C)cc2C)ncc1C [Compound 32] | 7.5 µg/mL (≈ 32.3 µM)

These molecules were tested on Mycosphaerella melonis in the same assay as above. Conditions: 24° C., read-out: ED50 value.
Assay type: cell-based
Experimental: as §1, §2

SMILES | IC50
Cc1cc(C)n(-c2nccc(Sc3ccccc3)n2)n1 [Compound 4] | 5.2 µg/mL (≈ 18.4 µM)
Cc1cc(C)n(-c2ncc(C)c(Sc3ccccc3)n2)n1 [Compound 35] | 2 µg/mL (≈ 6.75 µM)
CCOc1nc(-n2nc(C)cc2C)ncc1C [Compound 32] | 1.8 µg/mL (≈ 7.75 µM)

What follows are molecules tested on Botrytis cinerea in the same assay as above. Conditions: 24° C., read-out: ED50 value.
Assay type: cell-based
Experimental: as §1, §2

SMILES | IC50
Cc1cc(C)n(-c2nccc(Sc3ccccc3)n2)n1 [Compound 4] | 6.5 µg/mL (≈ 23 µM)
Cc1cc(C)n(-c2ncc(C)c(Sc3ccccc3)n2)n1 [Compound 35] | 9.6 µg/mL (≈ 32.4 µM)
CCOc1nc(-n2nc(C)cc2C)ncc1C [Compound 32] | 13.8 µg/mL (≈ 59.4 µM)

Each molecule was assayed on Fusarium nivale in the same assay as above. Conditions: Microdochium nivale, 24° C., read-out: ED50 value.
Assay type: cell-based
Experimental: as §1, §2

SMILES | IC50
Cc1cc(C)n(-c2nccc(Sc3ccccc3)n2)n1 [Compound 4] | 5.3 µg/mL (≈ 18.8 µM)
Cc1cc(C)n(-c2ncc(C)c(Sc3ccccc3)n2)n1 [Compound 35] | 2.6 µg/mL (≈ 8.77 µM)
CCOc1nc(-n2nc(C)cc2C)ncc1C [Compound 32] | 2.3 µg/mL (≈ 9.9 µM)

These molecules were tested on Penicillium digitatum in the same assay as above. Conditions: 24° C., read-out: ED50 value.
Assay type: cell-based
Experimental: as §1, §2

SMILES | IC50
Cc1cc(C)n(-c2nccc(Sc3ccccc3)n2)n1 [Compound 4] | 1.3 µg/mL (≈ 4.6 µM)
Cc1cc(C)n(-c2ncc(C)c(Sc3ccccc3)n2)n1 [Compound 35] | 0.8 µg/mL (≈ 2.7 µM)
CCOc1nc(-n2nc(C)cc2C)ncc1C [Compound 32] | 0.6 µg/mL (≈ 2.58 µM)

Each molecule was assayed on Phoma lingam in the same assay as above. Conditions: Plenodomus lingam, 24° C., read-out: ED50 value.
Assay type: cell-based
Experimental: as §1, §2

SMILES | IC50
Cc1cc(C)n(-c2nccc(Sc3ccccc3)n2)n1 [Compound 4] | 2.1 µg/mL (≈ 7.44 µM)
Cc1cc(C)n(-c2ncc(C)c(Sc3ccccc3)n2)n1 [Compound 35] | 4.6 µg/mL (≈ 15.5 µM)
CCOc1nc(-n2nc(C)cc2C)ncc1C [Compound 32] | 5.3 µg/mL (≈ 22.8 µM)

These molecules were tested on rice plant (assay: not given). Conditions: in vivo.

SMILES | Degree of chemical injury
Cc1cc(C)n(-c2nccc(Sc3ccccc3)n2)n1 [Compound 4] | 0
Cc1cc(C)n(-c2ncc(C)c(Sc3ccccc3)n2)n1 [Compound 35] | 0
CCOc1nc(-n2nc(C)cc2C)ncc1C [Compound 32] | 0

These molecules were tested on Cochliobolus miyabeanus (assay: Effect of controlling rice brown spot, Experimental Example 3). Conditions: sprayed liquid 500 ppm, 5 days after inoculation.
Assay type: in vivo, Cochliobolus miyabeanus on rice plant (variety: Asahi)

SMILES | Control Value
Cc1cc(C)n(-c2nccc(Sc3ccccc3)n2)n1 [Compound 4] | 85%
Cc1cc(C)n(-c2ncc(C)c(Sc3ccccc3)n2)n1 [Compound 35] | 92%
CCOc1nc(-n2nc(C)cc2C)ncc1C [Compound 32] | 76%

The molecules below were run on Pyricularia oryzae (assay: not given). Conditions: rice blast, prevention; 200 ppm; 5 days after inoculation.
Assay type: in vivo, Pyricularia oryzae on rice plant (variety: Asahi)

SMILES | Control Value
Cc1cc(C)n(-c2nccc(Sc3ccccc3)n2)n1 [Compound 4] | 100%
Cc1cc(C)n(-c2ncc(C)c(Sc3ccccc3)n2)n1 [Compound 35] | 84%
CCOc1nc(-n2nc(C)cc2C)ncc1C [Compound 32] | 100%

What follows are molecules tested on Sphaerotheca friliginea (assay: Effect of controlling cucumber powdery mildew, Experimental Example 4). Conditions: sprayed liquid 200 ppm, 10 days after inoculation.
Assay type: in vivo
Experimental: 10 ml of each of test liquids diluted to a predetermined concentration was sprayed over seedlings of a cucumber plant (variety: Sagami Hanpaku) grown up to the first leaf stage which has been soil cultured in an unglazed pot with a diameter of 9 cm in a green house. After allowing to stand overnight, the seedlings were sprayed for inoculation with a spore suspension of Sphaerotheca friliginea. Ten days after the inoculation, the rate of a lesion area (%) was checked and a control value was evaluated from the following equation. The degree of chemical injury against a cucumber plant was determined in the same manner as in Experimental Example.

SMILES | Control Value
Cc1cc(C)n(-c2nccc(Sc3ccccc3)n2)n1 [Compound 4] | 90%
Cc1cc(C)n(-c2ncc(C)c(Sc3ccccc3)n2)n1 [Compound 35] | 100%
CCOc1nc(-n2nc(C)cc2C)ncc1C [Compound 32] | 93%
